“Also recorded” adds a separate entry of the source.
What was measured:
lyso-Gb3 = experiment: Example 15, plasma lyso-Gb3; type: in vivo, human
Procedure: (§1) Plasma lyso-Gb3 and 24-hour urine GL-3 were analyzed by liquid chromatography-mass-spectroscopy using a novel stable isotope-labeled internal standard, 13C6-lyso-Gb3 (lower-limit-of-quantification: 0.200 ng/mL, 0.254 nmol/L).

GL-3 [1] = experiment: Example 15, kidney interstitial capillary GL-3 inclusions; type: in vivo, human
Description: The tertiary objectives were cardiac function, patient-reported outcomes, exploratory kidney analyses, and white blood cell α-galactosidase activity. Study completers were eligible to enroll in the open-label study—AT1001-041/NCT01458119—for up to 5 years.
Each patient underwent a baseline kidney biopsy, as well as repeat kidney biopsies at 6 and 12 months. The number of GL-3 inclusions per kidney interstitial capillary per patient at baseline, and at 6 and 12 months was quantitatively assessed in 300 capillaries by 3 independent pathologists blinded to treatment and visit. All values for each individual biopsy at a given time were averaged prior to statistical analysis.
Two other Stage 1 endpoints were assessed (modified-ITT population: randomized patients with paired baseline and month 6 biopsies; n=60): percent change in GL-3 inclusions per interstitial capillary, and percent of interstitial capillaries with zero GL-3 inclusions.

GL-3 [2] = experiment: Example 5, skin GL-3 levels by light and electron microscopy; type: in vivo, human; conditions: 10 patients, baseline and after treatment
Procedure: (§2) Eight patients in the study received an ascending dose of 25, 100, and then 250 mg b.i.d. over 6 weeks, followed by 50 mg/day for the remainder of the study.
Skin GL-3 levels at baseline and after treatment as assessed by light and electron microscopy are available for 10 patients.

GL-3 [3] = experiment: Example 6, urinalysis of GL-3; type: in vivo, human
Procedure: Four male patients received a single 150 mg Q.O.D for 12 weeks (Group B); while five male patients received 150 mg Q.O.D. for 24 weeks (Group C). Finally nine female patients were randomized to receive one of three dosages: 50, 150 or 250 mg Q.O.D for 12 weeks (Group D) (FIG. 8).
Urine was analysed at baseline and periodically every 2-6 weeks for GL-3.

GL-3 [4] = experiment: Example 11, immunohistochemical staining of GL-3 in hR301Q GLA Tg/KO mice; type: in vivo
Procedure: Immunohistochemical staining with a monoclonal anti-GL-3 antibody (nuclei counterstained with methyl green) was also performed. […] Data shown are representative pictures from 7-8 mice/group.

[5] = Example 13, tissue half-life of DGJ; type: in vivo, mice; conditions: male, hR301Q GLA Tg/KO, mouse, oral; skin, heart, kidney; after 4 weeks 100 mg/kg/day
α-GAL [6] = target: T1, α-GAL (Homo sapiens, UniProt P06280, R301Q); experiment: Example 8, α-GAL expression in tissues of transgenic mice expressing R301Q; type: in vivo; conditions: 100 mg/kg ad libitum, four weeks
T1 construct: from tissue; host or cells: skin, heart, kidney of transgenic mice
T1 sequence (P06280 32-429 R301Q): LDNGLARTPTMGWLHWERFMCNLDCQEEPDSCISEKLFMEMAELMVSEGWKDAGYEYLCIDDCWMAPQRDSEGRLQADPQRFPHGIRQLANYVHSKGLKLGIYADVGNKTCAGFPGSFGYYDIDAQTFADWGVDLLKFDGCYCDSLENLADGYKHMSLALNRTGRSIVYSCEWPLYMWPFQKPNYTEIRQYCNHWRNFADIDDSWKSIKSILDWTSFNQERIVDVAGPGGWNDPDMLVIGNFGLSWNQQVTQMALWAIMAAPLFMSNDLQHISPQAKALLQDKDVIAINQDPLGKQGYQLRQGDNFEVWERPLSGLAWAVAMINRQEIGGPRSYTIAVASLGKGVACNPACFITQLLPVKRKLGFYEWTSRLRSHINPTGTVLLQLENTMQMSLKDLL

hR301Q GLA = target: T2, hR301Q GLA (Homo sapiens, UniProt P06280, R301Q); experiment: Example 13, half-life of elevated hR301Q GLA after DGJ withdrawal; type: in vivo, mice; conditions: after 4 weeks 100 mg/kg/day DGJ, washout; exponential decay curves
T2 construct: from tissue; host or cells: skin, heart, kidney lysates of hR301Q GLA Tg/KO mice
T2 sequence (P06280 32-429 R301Q): T1 sequence (P06280 32-429 R301Q)

GL-3 [7] = experiment: Example 15, 24-hour urine GL-3; type: in vivo, human
Procedure: as §1

GL-3 [8] = experiment: Example 12, GL-3 levels in tissues of hR301Q GLA Tg/KO mice; type: in vivo; conditions: 3-300 mg/kg/day, 4 weeks; p<0.05 vs. untreated
Procedure: Tissue lysates from skin, heart, and kidney were prepared and tested for GLA activity (using 4-MUG as substrate, expressed in nmol/mg protein/hr), GLA protein (using immunoblotting of […] tissue lysate with anti-human GLA antibody) and GL-3 levels (using LC-MS/MS, expressed in mg/g of tissue weight). […] Each bar represents the mean±SEM of n=7-8 mice/group. Each lane in the Western blots represents one mouse from each group.

GL-3 [9] = experiment: Example 8, GL-3 in tissues of transgenic mice expressing R301Q; type: in vivo; conditions: 100 mg/kg ad libitum, four weeks
α-GAL [10] = type: in vivo, human; conditions: first eleven patients treated at least 12 weeks; two regimens
Procedure: as §2
For purposes of calculating the percentage of normal in the table, the level of α-GAL that is normal was derived by using the average of the levels of α-GAL in white blood cells of 15 healthy volunteers from the multiple-dose Phase I study.

GL-3 [11] = experiment: Example 15, podocyte GL-3 by electron microscopy stereology; type: in vivo, human; conditions: after 6 months of DGJ
Description: This decrease correlated with % reduction in podocyte GL-3 volume (r=0.79, p=0.02). […] The sensitive quantitative method used can assess treatment efficacy for this important cell type over a relatively short period of time. This method is also more sensitive than the methods described above in the kidney analysis of Example 5 (as shown in FIG. 14), as well as the methods earlier in this example relating to qualitative assessment of podocyte GL-3.

Which “Mean plasma lyso-Gb3” value (lyso-Gb3; after 6 months of DGJ, baseline 118±48, N=8 males, p=0.0004) does the source give for `OC[C@H]1NC[C@H](O)[C@@H](O)[C@H]1O` [DGJ, (2R,3S,4R,5S)-2-(hydroxymethyl) piperdine-3,4,5-triol] here?
The value was 75 ± 42 nM.

And the “plasma lyso-Gb3 levels” value (lyso-Gb3; six months of DGJ, mITT-suitable, p=0.0033)?
Its value is “significant reduction in plasma lyso-Gb3 levels compared to placebo”.

What about the “plasma lyso-Gb3” value (lyso-Gb3; switching from placebo to DGJ between 6 and 12 months, p<0.0001) of the same compound?
Its value is “significant reduction in plasma lyso-Gb3”.

And the “reduction in interstitial capillary GL-3 (±SEM)” value (GL-3 [1]; 6 months of DGJ, mITT-suitable, p=0.008 vs placebo)?
The value was −0.250±0.103.

And the “patients achieving a response (>50% reduction in GL-3 inclusions per interstitial capillary)” value (GL-3 [1]; 6 months, ITT, 150 mg DGJ HCl every other day, 13 of 32, p=0.30 vs placebo)?
The value was 41%.

What about the “median change in interstitial capillary GL-3 from baseline” value (GL-3 [1]; 6 months, p=0.097 vs placebo) of the same compound?
The value was −40.8%.

What about the “mean difference for the change in % of interstitial capillaries with zero GL-3 inclusions, in favor of DGJ” value (GL-3 [1]; 6 months, vs placebo, p=0.042) of the same compound?
Its value is 7.3%.

And the “interstitial capillary GL-3 reduction after additional treatment” value (GL-3 [1]; additional 6 months of treatment)?
Its value is “remained stable”.

And the “reduction in interstitial capillary GL-3 (±SEM)” value (GL-3 [1]; at 12 months, patients switching from placebo to DGJ at 6 months, p=0.014)?
Its value is −0.330±0.152.

And the “treatment effect in interstitial capillary GL-3” value (GL-3 [1]; patients with mutant α-galactosidase not suitable for DGJ therapy)?
Its value is “did not show any treatment effect in interstitial capillary GL-3”.

And the “skin GL-3 levels” value (GL-3 [2])?
Its value is “Seven patients had skin GL-3 levels that were normal or near normal both before and after treatment; also recorded: Results for the three other patients were difficult to interpret”.

And the “expected good responders with urine GL-3 decrease greater than 10%” value (GL-3 [3]; female)?
The value was 3 of the 5.

And the “mean decrease in urine GL-3 levels” value (GL-3 [3]; female expected good responders)?
The value was 20%.

What about the “good responders with urine GL-3 decrease greater than 10%” value (GL-3 [3]; male good responders) of the same compound?
The value was “eight of the eleven”.

And the “mean decrease in urine GL-3 levels” value (GL-3 [3]; male good responders)?
Its value is 38%.

And the “urine GL-3 following treatment” value (GL-3 [3]; male moderate and non responders)?
The value was “overall increases in urine GL-3”.

And the “GL-3 signal, less frequent vs daily dosing” value (GL-3 [4]; 300 mg/kg, 4 weeks)?
Its value is “greater GL-3 reduction was seen in each tissue”.

What about the “GL-3 signal by immunohistochemistry” value (GL-3 [4]; both daily and less frequent treatment, skin, heart, kidney) of the same compound?
Its value is “reduced the amount and intensity of GL-3 signal in each tissue”.

What about the half-life [5] of the same compound?
Its half-life is 6 to 7 h.

And the “α-GAL expression in the skin, heart and kidney” value (α-GAL [6])?
The value was “increased”.

And the “half-life of elevated tissue hR301Q GLA levels” value (hR301Q GLA)?
Its value is 48 to 60 h.

And the “mean change in 24-hour urine GL-3 substrate (±SEM) concentration” value (GL-3 [7]; baseline to month 6, suitable mutants, p=0.44 vs placebo)?
The value was −361±169 ng/mg creatinine.

What about the “24-hour urine GL-3 substrate (±SEM) concentration reached” value (GL-3 [7]; month 6, suitable mutants) of the same compound?
Its value is 555±151 ng/mg creatinine.

And the “GL-3 levels in skin, heart, kidney” value (GL-3 [8])?
The value was “significant reduction in GL-3 levels”.

And the “GL-3 aggregates, histology of renal tube and cardiac sections” value (GL-3 [9])?
The value was “presence of GL-3 aggregates was reduced”.

What about the “concentration of GL-3 in the sampled tissues” value (GL-3 [9]) of the same compound?
Its value is “reduced”.

What about the “patients with an increase in α-GAL activity” value (α-GAL [10]) of the same compound?
Its value is 10 of the 11.

And the “mean±SD V(Inc/PC), GL-3 inclusion volume per podocyte” value (GL-3 [11]; baseline 2568±1408, N=8 males, p=0.0182)?
The value was 1282±792 μm^3.

What about the mean podocyte volume (GL-3 [11]; baseline 6680±2835, p=0.004) of the same compound?
Its mean podocyte volume is 3525±2084 μm^3.

Source: patent US11033538B2, “Dosing regimens for the treatment of lysosomal storage diseases using pharmacological chaperones” (Amicus Therapeutics, Inc., priority 2007, dated 2021)
